US20220079931A1, “ESTROGEN RECEPTOR PROTEIN DEGRADERS” (THE REGENTS OF THE UNIVERSITY OF MICHIGAN, priority 2019, published 2022)

How the values were obtained:
[1] = tested on: mRNA levels of pGR and GREB1; assay: qRT-PCR of ER-regulated genes in MCF-7 cells
[2] = target: T1, ERα (Homo sapiens, UniProt P03372); assay: ER degradation by Western blotting in T47D cells; format: cell-based; parameters: Dmax: dose or concentration left out as unconfirmed
T1 sequence (P03372 1-595): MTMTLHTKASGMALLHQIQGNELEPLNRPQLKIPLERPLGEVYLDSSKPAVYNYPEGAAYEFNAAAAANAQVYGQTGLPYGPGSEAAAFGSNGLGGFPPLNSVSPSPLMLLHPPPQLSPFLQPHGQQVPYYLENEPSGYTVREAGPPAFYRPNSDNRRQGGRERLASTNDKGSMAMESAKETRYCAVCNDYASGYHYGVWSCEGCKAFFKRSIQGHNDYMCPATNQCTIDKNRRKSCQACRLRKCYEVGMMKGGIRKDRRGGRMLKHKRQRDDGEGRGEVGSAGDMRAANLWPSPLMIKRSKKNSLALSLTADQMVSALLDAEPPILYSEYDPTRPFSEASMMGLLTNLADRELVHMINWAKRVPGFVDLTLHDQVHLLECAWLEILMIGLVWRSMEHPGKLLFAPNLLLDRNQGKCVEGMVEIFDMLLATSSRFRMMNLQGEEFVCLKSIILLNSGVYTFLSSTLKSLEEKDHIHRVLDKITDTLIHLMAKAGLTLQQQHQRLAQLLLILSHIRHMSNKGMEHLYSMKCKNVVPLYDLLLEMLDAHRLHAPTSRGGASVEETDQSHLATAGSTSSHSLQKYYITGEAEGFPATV
Method: FIG. 8 is an image showing the ERα degradation dose-response Western blotting for compound 32 at 4 h in T47D cells. […] Cell Culture. Human breast cancer cell lines MCF-7 (ATCC® HTB-22TM) and T47D (ATCC® HTB-133TM) were purchased from the American Type Culture Collection (ATCC), Manassas, Va., and maintained and cultured in Dulbecco's Modified Eagle's medium (DMEM) containing 10% fetal bovine serum, 1 unit/ml of penicillin and 1 μg/ml of streptomycin. Cells with 3-8 passages after purchase were used in experiments as indicated. Western Blot Analysis. Western blot analysis was performed essentially as described previously (Hu et al, 2015, PMID: 26358219). Cells treated with indicated compounds were lysed in Radioimmunoprecipitation Assay Protein Lysis and Extraction Buffer (25 mmol/L Tris.HCl, pH 7.6, 150 mmol/L NaCl, 1% Nonidet P-40, 1% sodium deoxycholate, and 0.1% sodium dodecyl sulfate) containing proteinase inhibitor cocktail (Roche Diagnostics, Mannheim, Germany). After determination of protein concentration by BCA assay (Fisher Scientific, Pittsburgh, Pa.), equal amounts of total protein were electrophoresed through 10% SDS-polyacrylamide gels. The separated protein bands were transferred onto PVDF membranes (GE Healthcare Life Sciences, Marlborough, Mass.) and blotted against different antibodies, as indicated. The human estrogen receptor a antibodies (AB16460) were purchased from Abeam, Inc., Cambridge, Mass. The membranes were reblotted with horseradish peroxidase-conjugated anti-glyceraldehyde-3-phosphate dehydrogenase antibody ([…]) from Sigma-Aldrich Corporation, St. Louis, Mo. The blots were scanned and the band intensities were quantified using GelQuant.NET software as described in biochemlabsolutions.com. The relative mean intensity of target proteins was expressed after normalization to the intensity of glyceraldehyde-3-phosphate dehydrogenase bands from individual repeats.

[3] = tested on: MCF-7 cells; assay: WST-8 cell proliferation assay in MCF-7 cells; format: cell-based, human
Method: Cell Culture. Human breast cancer cell lines MCF-7 (ATCC® HTB-22™) and T47D (ATCC® HTB-133™) were purchased from the American Type Culture Collection (ATCC), Manassas, Va., and maintained and cultured in Dulbecco's Modified Eagle's medium (DMEM) containing 10% fetal bovine serum, 1 unit/ml of penicillin and 1 μg/ml of streptomycin. Cells with 3-8 passages after purchase were used in experiments as indicated.
(§1) Cell Growth Assay. Cells were seeded at 1500/well in 96 well plates overnight. One day after seeding, they were treated with indicated doses of compounds. The growth of the cells was evaluated by colorimetric WST-8 assay 4 days after the compound treatment following the instructions of the manufacturer, Cayman Chemical, Ann Arbor, Mich.
(§2) Fulvestrant achieves an Imax value of 43.8%. […] RAD1901, a previously reported SERD molecule^18, achieves an Imax value of 25.7%.

[4] = tested on: primary human mammary epithelial cells; assay: Cell proliferation in primary human mammary epithelial cells; format: cell-based
Method: as §1, §2

[5] = tested on: MDA-MB-231; assay: Cell proliferation in triple-negative breast cancer cells; format: cell-based, human; conditions: MDA-MB-231 triple-negative breast cancer cells
Method: as §1, §2

[6] = target: T1, ERα; assay: Mechanism of ER degradation: pretreatment with VHL ligand, ER ligand or proteasome inhibitor, Western blotting in MCF-7 cells; format: cell-based; parameters: host or cells: MCF-7; conditions: 32 at 30 nM 4 h
Method: (§3) Then whole-cell lysates were analyzed by Western blotting.
as §3
Western Blot Analysis. […] Cells treated with indicated compounds were lysed in Radioimmunoprecipitation Assay Protein Lysis and Extraction Buffer (25 mmol/L Tris.HCl, pH 7.6, 150 mmol/L NaCl, 1% Nonidet P-40, 1% sodium deoxycholate, and 0.1% sodium dodecyl sulfate) containing proteinase inhibitor cocktail (Roche Diagnostics, Mannheim, Germany). After determination of protein concentration by BCA assay (Fisher Scientific, Pittsburgh, Pa.), equal amounts of total protein were electrophoresed through 10% SDS-polyacrylamide gels. The separated protein bands were transferred onto PVDF membranes (GE Healthcare Life Sciences, Marlborough, Mass.) and blotted against different antibodies, as indicated. The human estrogen receptor a antibodies (AB16460) were purchased from Abeam, Inc., Cambridge, Mass. The membranes were reblotted with horseradish peroxidase-conjugated anti-glyceraldehyde-3-phosphate dehydrogenase antibody (G9295) from Sigma-Aldrich Corporation, St. Louis, Mo. The blots were scanned and the band intensities were quantified using GelQuant.NET software as described in biochemlabsolutions.com. The relative mean intensity of target proteins was expressed after normalization to the intensity of glyceraldehyde-3-phosphate dehydrogenase bands from individual repeats.

[7] = tested on: MCF-7 cells; assay: Crystal violet staining experiment in MCF-7 cells; conditions: 10 nM, 100 nM and 300 nM, versus raloxifene and fulvestrant

CCN(CCCCCOCC(=O)N[C@H](C(=O)N1C[C@H](O)C[C@H]1C(=O)N[C@@H](C)c1ccc(-c2scnc2C)cc1)C(C)(C)C)CCOc1ccc(C(=O)c2c(-c3ccc(O)cc3)sc3cc(O)ccc23)cc1 [compound 32, (2S,4R)-1-((S)-2-(2-((5-(Ethyl(2-(4-(6-hydroxy-2-(4-hydroxyphenyl)benzo[b]thiophene-3-carbonyl)phenoxy)ethyl)amino)pentyl)oxy)acetamido)-3,3-dimethylbutanoyl)-4-hydroxy-N—((S)-1-(4-(4-methylthiazol-5-yl)phenyl)ethyl)pyrrolidine-2-carboxamide]
suppression of pGR and GREB1 expression compared with fulvestrant ([1]; 10 nM and 100 nM): slightly more effective than fulvestrant | suppression of pGR and GREB1 expression compared with raloxifene ([1]; 10 nM and 100 nM): significantly more effective than raloxifene | suppression of expression of pGR and GREB1 ([1]; qRT-PCR): strongly suppressed | hook effect ([2]; T47D cells, 1 μM): demonstrates a hook effect | DC50 ([2]; T47D cells, 4 h): 0.43 nM | Dmax ([2]; T47D, read-out: maximum degradation): > 95% | IC50 ([3]; Homo sapiens, MCF7, 96 h, read-out: IC50, inhibition of cell proliferation): 0.77 nM | maximum inhibition (Imax) ([3]; MCF-7 cells, WST-8, 4 days): 57.5% | cell proliferation inhibition [4]: does not exhibit the cell proliferation inhibition effects | cell proliferation inhibition [5]: does not exhibit the cell proliferation inhibition effects | blocking of ER degradation by compound 32 with 1 μM VHL ligand 11 ([6]; 1 μM VHL ligand 11 pretreatment 2 h): only slightly | ER degradation induced by compound 32 on addition of carfilzomib ([6]; 1 μM proteasome inhibitor carfilzomib pretreatment 2 h): significantly reduced | ER degradation induced by compound 32 on addition of raloxifene ([6]; 1 μM raloxifene pretreatment 2 h): significantly reduced | blocking of ER degradation by compound 32 with 5 μM or 10 μM VHL ligand 11 ([6]; 5 μM or 10 μM of 11 pretreatment 2 h): completely blocked | reduction of cell proliferation (crystal violet staining) [7]: reduced cell proliferation more significantly than raloxifene or fulvestrant
